In the supplement of paper PMC11061612:

Key:
Assay in all cases: Bliss excess, mean over the matrix (fraction); higher = more synergy
[1] = system: COLO-679 (Melanoma)
Procedure, shortened: (§1)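 Cell lines in DMEM/F12 or RPMI with 10% FBS were plated in 1536-well plates, held 24 hours at 37°C, 5% CO2, then given two-drug dose matrices for 72 hours (DMSO typically 0.2%). Viability was read by CellTiter-Glo 2.0 luminescence and scaled as inhibition from 0 (vehicle wells) to 1 (blank wells). Combination Emax is the second-highest inhibition in the matrix; Bliss excess is observed combination effect minus expected EA + EB − EA·EB, EA and EB being single-agent effects.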

[2] = system: MDA-MB-453 (Breast Carcinoma)
Procedure, shortened: as §1

[3] = system: SW872 (Other Solid Carcinomas)
Procedure, shortened: as §1

[4] = system: A4-Fuk (B-Lymphoblastic Leukemia)
Procedure, shortened: as §1

[5] = system: SKN (Other Solid Carcinomas)
Procedure, shortened: as §1

[6] = system: Ca-Ski (Cervical Carcinoma)
Procedure, shortened: as §1

[7] = system: DU-145 (Prostate Carcinoma)
Procedure, shortened: as §1

[8] = system: Mo-T (Other Blood Carcinomas)
Procedure, shortened: as §1

[9] = system: OE33 (Esophageal Adenocarcinoma)
Procedure, shortened: as §1

[10] = system: SK-N-AS (Neuroblastoma)
Procedure, shortened: as §1

[11] = system: SK-LU-1 (Lung Adenocarcinoma)
Procedure, shortened: as §1

[12] = system: MOG-G-UVW (Low Grade Glioma)
Procedure, shortened: as §1

[13] = system: NCI-H522 (Lung Adenocarcinoma)
Procedure, shortened: as §1

[14] = system: KGN (Other Solid Carcinomas)
Procedure, shortened: as §1

[15] = system: HCC1500 (Breast Carcinoma)
Procedure, shortened: as §1

[16] = system: ALL-SIL (T-Lymphoblastic Leukemia)
Procedure, shortened: as §1

[17] = system: EJM (Plasma Cell Myeloma)
Procedure, shortened: as §1

[18] = system: EW-1 (Ewing's Sarcoma)
Procedure, shortened: as §1

[19] = system: HCC2998 (Colorectal Carcinoma)
Procedure, shortened: as §1

Row | Compound | Bliss excess [1] | Bliss excess [2] | Bliss excess [3] | Bliss excess [4] | Bliss excess [5] | Bliss excess [6] | Bliss excess [7] | Bliss excess [8] | Bliss excess [9] | Bliss excess [10] | Bliss excess [11] | Bliss excess [12] | Bliss excess [13] | Bliss excess [14] | Bliss excess [15] | Bliss excess [16] | Bliss excess [17] | Bliss excess [18] | Bliss excess [19]
1 | CN(CCO)CC[C@H](CSc1ccccc1)Nc1ccc(S(=O)(=O)NC(=O)c2ccc(N3CCC([C@@H](O)c4ccccc4-c4ccc(Cl)cc4)CC3)cc2)cc1S(=O)(=O)C(F)(F)F [AZD4320] + CS(=O)(=O)CCNCc1ccc(-c2ccc3ncnc(Nc4ccc(OCc5cccc(F)c5)c(Cl)c4)c3c2)o1 [Lapatinib] (first compound max 1 µM, 7x7, partner max 10 µM) | -0.106 | -0.0554 | 0.0097 | -0.0065 | -0.0188 | 0.127 | -0.028 | 0.0485 | 0.0519 | -0.0397 | -0.0415 | 0.0193 | -0.0206 | -0.0448 |  |  |  |  | 
2 | C[C@@H]1COCCN1c1cc(C2([S@](C)(=N)=O)CC2)nc(-c2ccnc3[nH]ccc23)n1 [AZD6738] + Nc1ccn([C@@H]2O[C@H](CO)[C@@H](O)C2(F)F)c(=O)n1 [Gemcitabine] (first compound max 10 µM, 7x7, partner max 0.3 µM) | -0.0611 | -0.0251 | 0.0769 | -0.0486 | 0.0033 | 0.0982 | 0.0742 | 0.002 | -0.0518 | 0.0469 | -0.0668 | 0.0856 | 0.122 | 0.0065 |  |  |  |  | 
3 | CS(=O)(=O)CCNCc1ccc(-c2ccc3ncnc(Nc4ccc(OCc5cccc(F)c5)c(Cl)c4)c3c2)o1 [Lapatinib] + Cn1cnc2c(F)c(Nc3ccc(Br)cc3Cl)c(C(=O)NOCCO)cc21 [Selumetinib] (first compound max 10 µM, 7x7, partner max 10 µM) | -0.116 | -0.0421 | 0.0006 | -0.045 | -0.0349 | -0.0185 | 0.0008 | -0.0542 | -0.0143 | 0.0034 | -0.0145 | 0.024 | -0.0304 | 0.0232 |  |  |  |  | 
4 | O=C(c1cc(Cc2n[nH]c(=O)c3ccccc23)ccc1F)N1CCN(C(=O)C2CC2)CC1 [Olaparib] + CN(CC[C@H](CSC1=CC=CC=C1)NC2=C(C=C(C=C2)S(=O)(=O)NC(=O)C3=CC=C(C=C3)N4CCC(CC4)[C@H](C5=CC=CC=C5C6=CC=C(C=C6)Cl)O)S(=O)(=O)C(F)(F)F)CCO [AZD4320] (first compound max 10 µM, 7x7, partner max 1 µM) | -0.0667 | -0.0342 | -0.0189 | -0.0428 | -0.0712 | 0.0083 | -0.0305 | -0.0065 | -0.037 | -0.0291 | -0.0445 | -0.0009 | -0.0566 | -0.0153 |  |  |  |  | 
5 | C[C@@H]1COCCN1c1cc(C2([S@](C)(=N)=O)CC2)nc(-c2ccnc3[nH]ccc23)n1 [AZD6738] + C1CC(C1)(C(=O)[O-])C(=O)[O-].N.N.[Pt+2] [Carboplatin] (first compound max 10 µM, 7x7, partner max 10 µM) | -0.0944 | -0.0327 | 0.0087 | -0.0571 | -0.0766 | 0.0041 | -0.043 | -0.0272 | -0.0416 | -0.0538 | -0.0088 | -0.0044 | -0.0584 | -0.0084 |  |  |  |  | 
6 | Cc1c2c(nn1C)CSCc1cc(n(C)n1)CSc1cc(c3ccccc3c1)OCCCc1c(C(=O)O)n(C)c3c-2c(Cl)ccc13 [AZD5991] + Nc1ccn([C@@H]2O[C@H](CO)[C@@H](O)C2(F)F)c(=O)n1 [Gemcitabine] (first compound max 1 µM, 7x7, partner max 0.3 µM) | -0.0703 | 0.0145 | -0.0066 | -0.0182 | -0.0331 | 0.0354 | -0.0284 | -0.0226 | 0.0018 | 0.0183 | -0.0518 | 0.0085 | 0.091 | -0.0457 |  |  |  |  | 
7 | O=C(c1cc(Cc2n[nH]c(=O)c3ccccc23)ccc1F)N1CCN(C(=O)C2CC2)CC1 [Olaparib] + Cc1c2c(nn1C)CSCc1cc(n(C)n1)CSc1cc(c3ccccc3c1)OCCCc1c(C(=O)O)n(C)c3c-2c(Cl)ccc13 [AZD5991] (first compound max 10 µM, 7x7, partner max 1 µM) | -0.0555 | -0.0038 | -0.0377 | -0.0387 | -0.0407 | -0.0275 | -0.0348 | -0.0492 | -0.0543 | -0.0347 | -0.0436 | -0.0125 | -0.0062 | -0.0651 |  |  |  |  | 
8 | Cc1c2c(nn1C)CSCc1cc(n(C)n1)CSc1cc(c3ccccc3c1)OCCCc1c(C(=O)O)n(C)c3c-2c(Cl)ccc13 [AZD5991] + C=CCn1c(=O)c2cnc(Nc3ccc(N4CCN(C)CC4)cc3)nc2n1-c1cccc(C(C)(C)O)n1 [AZD1775] (first compound max 1 µM, partner max 1 µM) | 0.0628 | -0.0091 | 0.0634 | 0.0204 | -0.0269 | -0.0012 | 0.0621 | 0.0127 | -0.023 | -0.066 | -0.0082 | -0.0756 | -0.0201 | -0.002 | 0.0305 | 0.0026 | 0.0357 | 0.01 | 0.0142
